US20040072767A1, “Glucopyranose derivatives and medicaments for preventing and/or treating HIV infection diseases comprising the same as an active ingredient” (ONO PHARMACEUTICAL CO., LTD., priority 1998, published 2004)

These molecules were tested against T1, CXCR4 (Homo sapiens, UniProt P61073) (assay: Inhibition experiment against induction activity of SDF-1 on transitory increase of Ca ion). Conditions: CCRF-HSB-2; test compound 10 μM; SDF-1β 30 nM added 3 minutes after compound; CCRF-HSB2 human T cells loaded with Fura-2AM; read-out: Inhibition rate (%).
T1 construct: host or cells: CCRF-HSB2 human T cells
T1 sequence (P61073 whole entry): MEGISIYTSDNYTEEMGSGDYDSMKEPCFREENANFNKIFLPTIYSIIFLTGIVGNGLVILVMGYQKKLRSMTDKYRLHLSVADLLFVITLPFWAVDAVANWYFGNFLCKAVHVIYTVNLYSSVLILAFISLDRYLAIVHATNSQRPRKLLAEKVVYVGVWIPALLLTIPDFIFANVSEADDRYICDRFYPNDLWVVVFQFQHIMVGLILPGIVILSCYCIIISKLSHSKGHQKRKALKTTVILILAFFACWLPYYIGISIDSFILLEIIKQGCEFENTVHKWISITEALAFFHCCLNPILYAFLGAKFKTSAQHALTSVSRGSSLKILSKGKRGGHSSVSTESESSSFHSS
Assay type: cell-based
Text: As described above, for screening a compound inhibiting the binding of HIV to CXCR4 which is a receptor on T cell, it is a more direct procedure to carry out the screening in an assay system using HIV virus. However, use of HIV virus on a large scale screening is not practical owing to its difficulty of handling. On the other hand, since HIV and SDF-1 are both bound to CXCR4, it is expectable that there are some common characteristics between the CXCR4 binding sites of both HIV and SDF-1 sides and the SDF-1 and HIV binding sites of CXCR4 side. Therefore, in order to find out a compound inhibiting the adsorption of HIV virus to a cell, i.e., having an activity mechanism different from the existing anti-AIDS medicaments (inhibitors of reverse transcription and inhibitors of proteases), it is possible to utilize an assay system using SDF-1 which is an original ligand for CXCR4, instead of HIV. More particularly, as an example of the screening system of a compound inhibiting the binding of SDF-1 to CXCR4, a system of measuring an effect on transitory increase of Ca ion induced by SDF-1 through CXCR4 is practicable since CXCR4 is a G protein-conjugated seven-times transmembrane-type receptor.
A human T cell expressing CXCR4, for example cells of CCRF-HSB2 (ATCC No. CCL-120.1) were suspended into RPMI-1640 medium, fetal bovine serum (FBS) (10%), Fura-2AM (5 μM) (Dojin Kagaku, cat# 343-05401), Probenecid (2.5 mM), and a HEPES buffer (20 mM, pH 7.4) so as to be 5×10^6 cell/ml, and the suspension was heated at 37° C. for 30 minutes under a light-shielded condition. Then, a 4 to 8 fold-diluted Hanks solution (1× Hanks), HEPES (20 mM, pH 7.4) and Probenecid (2.5 mM) were added thereto, and the whole was heated for another 30 minutes. After the cells were washed with a solution of 1× Hanks, HEPES (20 mM, pH 7.4) and Probenecid (2.5 mM), they were re-suspended into the solution so as to be 2×10^6 cell/ml. For the T cell on which Fura-2AM had been loaded, the transitory increase of Ca induced by the addition of recombinant SDF-1β dissolved in PBS(−) was detected by use of a suitable Ca detector. In the inhibition experiment, the inhibitory effect of a test compound (10 μM) on the transitory increase of Ca induced by the addition of recombinant SDF-1β were measured by adding SDF-1β at an amount so as to be final concentration of, for example, 30 nM at 3 minutes after the addition of the test compound. An inhibition rate (%) was calculated according to the following equation.
Inhibition rate=(Ec−Ea)/Ec×100
In the equation, each symbol means as follows: […]
Ec: measured value of the transitory increase of Ca induced by SDF-1β
Ea: measured value of the transitory increase of Ca induced by SDF-1β when a test compound was added.
With `CCCCCCCCCCC[C@H](CC(=O)N[C@H]1C(O)O[C@H](CO)[C@@H](OS(=O)(=O)O)[C@@H]1OC(=O)CCCCCCCCC)OC(=O)CCCCCCCCC` (stereo partly drawn) [Example 2 (4), 2-deoxy-2-[3R-(decanoyloxy)tetradecanoyl]amino-3-O-decanoyl-4-O-sulfo-D-glucopyranose] the inhibition at 10 µM was 94%. Work on `CCCCCCCCCCC[C@H](CC(=O)N[C@H]1C(O)O[C@H](CO)[C@@H](OS(=O)(=O)O)[C@@H]1OC(=O)CCCCC)OC(=O)CCCCC` (stereo partly drawn) [Example 2 (3), 2-deoxy-2-[3R-(hexanoyloxy)tetradecanoyl]amino-3-O-hexanoyl-4-O-sulfo-D-glucopyranose] yielded an inhibition at 10 µM of 79%. `CCCCCCCCCCCC(=O)O[C@H](CCCCCCCCCCC)CC(=O)N[C@H]1C(O)O[C@H](CO)[C@@H](OS(=O)(=O)O)[C@@H]1OC(=O)CCCCCCCCCCC` (stereo partly drawn) [Example 2 (5), 2-deoxy-2-[3R-(dodecanoyloxy)tetradecanoyl]amino-3-O-dodecanoyl-4-O-sulfo-D-glucopyranose] gave an inhibition at 10 µM of 99%.

Same assay, conditions: test compound 10 μM; SDF-1β 30 nM added 3 minutes after compound; CCRF-HSB2 human T cells loaded with Fura-2AM
For `CCCCCCCCCCCCC[C@@H](CC(=O)N[C@H]1C(O)O[C@H](CO)[C@@H](OS(=O)(=O)[O-])[C@@H]1OC(=O)CCCCCCCCc1ccccc1)OC(=O)CCCCCCCCc1ccccc1.[Na+]` (stereo partly drawn) [Compound (17), 2-Deoxy-2-[3S-[9-phenylnonanoyloxy]hexadecanoyl]amino-3-O-[9-phenylnonanoyl]4-O-sulfo-D-glucopyranose sodium salt], the “Inhibition rate (%)” value was 93%. `CCCCCCCCCCC[C@@H](CC(=O)N[C@H]1C(O)O[C@H](CO)[C@@H](OS(=O)(=O)O)[C@@H]1OC(=O)CCCCc1ccc(CCCCC)cc1)OC(=O)CCCCc1ccc(CCCCC)cc1` (stereo partly drawn) [Compound (5), 2-deoxy-2-[3S-[5-(4-pentylphenyl)pentanoyloxy]tetradecanoyl]amino-3-O-[5-(4-pentylphenyl)pentanoyl]4-O-sulfo-D-glucopyranose] was tested, and the “Inhibition rate (%)” value was 97%. With `CCCCCCCCCCC[C@@H](CC(=O)N[C@H]1C(O)O[C@H](CO)[C@@H](OS(=O)(=O)O)[C@@H]1OC(=O)CCCCCCCOc1cc(Cl)cc(Cl)c1)OC(=O)CCCCCCCOc1cc(Cl)cc(Cl)c1` (stereo partly drawn) [Compound (7), 2-deoxy-2-[3S-[8-(3,5-dichlorophenoxy)octanoyloxy]tetradecanoyl]amino-3-O-[8-(3,5-dichlorophenoxy)octanoyl]-4-O-sulfo-D-glucopyranose] the “Inhibition rate (%)” value was 95%. `O=C(CCCCCCCCc1ccc2ccccc2c1)N[C@H]1C(O)O[C@H](CO)[C@@H](OS(=O)(=O)O)[C@@H]1OC(=O)CCCCCCCCc1ccc2ccccc2c1` (stereo partly drawn) [Compound (6), 2-deoxy-2-[9-(2-naphthyl)nonanoyl]amino-3-O-[9-(2-naphthyl)nonanoyl]-40-sulfo-D-glucopyranose] was tested, and the “Inhibition rate (%)” value was 97%. `CCCCCCCCCCC[C@@H](CC(=O)N[C@H]1CO[C@H](C)[C@@H](OS(=O)(=O)O)[C@@H]1OC(=O)CCCCCCCCc1ccccc1)OC(=O)CCCCCCCCc1ccccc1` [Compound (12), 2,6-deoxy-2-[3S-(9-phenylnonanoyloxy)tetradecanoyl]amino-3-O-(9-phenylnonanoyl)-4-O-sulfo-1,5-anhydro-D-glucitol] was tested, and the “Inhibition rate (%)” value was 94%. With `CCCCCCCCCCCCCC(=O)O[C@@H]1[C@@H](NC(=O)c2ccc(OCCCCCCCCCC)c(OCCCCCCCCCC)c2)[C@@H](OC)O[C@H](CO)[C@H]1OS(=O)(=O)O` [Compound (10), methyl 2-deoxy-2-(3,4-didecyloxybenzoyl) amino-3-O-tetradecanoyl-4-O-sulfo-α-D-glucopyranoside] the “Inhibition rate (%)” value was 91%. In the case of `CCCCCCCCCCCC(CC(=O)NC1CCCC(OS(=O)(=O)O)C1OC(=O)CCCCCCCCc1ccccc1)OC(=O)CCCCCCCCc1ccccc1` (stereo not drawn) [Compound (13), 3(syn)-[3RS-(9-phenylnonanoyloxy)tetradecanoyl]amino-2RS (anti)-(9-phenylnonanoyloxy)cyclohexa-1RS-yl-O-sulfonic acid], the “Inhibition rate (%)” value is reported as 86%. `O=C(C[C@H](CCCCCCc1ccccc1)OC(=O)CCCCCCCCc1ccccc1)N[C@H]1C(O)O[C@H](CO)[C@@H](OS(=O)(=O)O)[C@@H]1OC(=O)CCCCCCCCc1ccccc1` (stereo partly drawn) [Compound (2), 2-deoxy-2-[3S-(9-phenylnonanoyloxy)-9-phenylnonanoyl]amino-3-O-(9-phenylnonanoyl)-4-O-sulfo-D-glucopyranose] was tested, and the “Inhibition rate (%)” value was 96%. `CCCCCCCCCCCCCC(=O)O[C@H]1[C@H](OS(=O)(=O)O)[C@@H](CO)OC(O)[C@@H]1NC(=O)c1ccc(OCCCCCCCCCC)c(OCCCCCCCCCC)c1` (stereo partly drawn) [Compound (9)] was tested, and the “Inhibition rate (%)” value was 93%. `CCCCCCCCCCC[C@@H](CC(=O)N[C@H]1C(O)O[C@H](CO)[C@@H](OS(=O)(=O)[O-])[C@@H]1OC(=O)CCCCCCCCc1ccccc1)OC(=O)CCc1ccccc1.[Na+]` (stereo partly drawn) [Compound (14), 2-Deoxy-2-[3S-[3-phenylpropanoyloxy]tetradecanoyl]amino-3-O-[9-phenylnonanoyl]4-O-sulfo-D-glucopyranose sodium salt] was tested, and the “Inhibition rate (%)” value was 96%. With `CCCCCCCCCCC[C@@H](CC(=O)N[C@H]1C(O)O[C@H](CO)[C@@H](OS(=O)(=O)[O-])[C@@H]1OC(=O)CCc1ccccc1)OC(=O)CCCCCCCCc1ccccc1.[Na+]` (stereo partly drawn) [Compound (15), 2-Deoxy-2-[3S-[9-phenylnonanoyloxy]tetradecanoyl]amino-3-O-[3-phenylpropanoyl]-4-O-sulfo-D-glucopyranose sodium salt] the “Inhibition rate (%)” value was 93%. In the case of `CCCCCCCCCCCCCC(=O)O[C@@H](CCCCCCCCCCC)CC(=O)N[C@H]1C(O)O[C@H](C)[C@@H](OS(=O)(=O)O)[C@@H]1OC(=O)CCCCCCCCCCCCC` (stereo partly drawn) [Example 4, 2,6-deoxy-2-[3S-(tetradecanoyloxy)tetradecanoyl]amino-3-O-tetradecanoyl-4-O-sulfo-D-glucopyranose], the “Inhibition rate (%)” value is reported as 92%. In the case of `CCCCCCCCCCC[C@H](CC(=O)N[C@H]1C(O)O[C@H](CO)[C@@H](OS(=O)(=O)[O-])[C@@H]1OC(=O)CCCCCCCCc1ccccc1)OC(=O)CCCCCCCCc1ccccc1.[Na+]` (stereo partly drawn) [Compound (18), 2-Deoxy-2-R[3-[9-phenylnonanoyloxy]tetradecanoyl]amino-3-O-[9-phenylnonanoyl]4-O-sulfo-D-glucopyranose sodium salt], the “Inhibition rate (%)” value is reported as 91%. With `CCCCCCCCCCC[C@@H](CC(=O)N[C@H]1C(O)O[C@H](CO)[C@@H](OS(=O)(=O)O)[C@@H]1OC(=O)CCCCCCCc1ccc(OC)cc1)OC(=O)CCCCCCCc1ccc(OC)cc1` (stereo partly drawn) [Compound (3)] the “Inhibition rate (%)” value was 97%. With `CCCCCCCCCCCC(CC(=O)N[C@H]1COC[C@@H](OS(=O)(=O)O)[C@@H]1OC(=O)CCCCCCCCc1ccccc1)OC(=O)CCCCCCCCc1ccccc1` (stereo partly drawn) [Compound (8), 2-deoxy-2-[3RS-(9-phenylnonanoyloxy)tetradecanoyl]amino-3-O-(9-phenylnonanoyl)-4-O-sulfo-1,5-anhydro-D-xylitol] the “Inhibition rate (%)” value was 94%. In the case of `CCCCCCCCCCC[C@@H](CC(=O)N[C@H]1C(O)O[C@H](CO)[C@@H](OS(=O)(=O)[O-])[C@@H]1OC(=O)CCCCCCCCc1ccccc1)OC(=O)CCCCCCCCc1ccccc1.[Na+]` (stereo partly drawn) [Compound (1), 2-Deoxy-2-[3S-(9-phenylnonanoyloxy)tetradecanoyl]amino-3-O-(9-phenylnonanoyl)-4-O-sulfo-D-glucopyranose sodium salt], the “Inhibition rate (%)” value is reported as 93%. With `CCCCCCCCCCC[C@@H](CC(=O)N[C@H]1C(O)O[C@H](CO)[C@@H](OS(=O)(=O)O)[C@@H]1OC(=O)CCCCCCCCc1ccc(Cl)cc1)OC(=O)CCCCCCCCc1ccc(Cl)cc1` (stereo partly drawn) [Compound (4)] the “Inhibition rate (%)” value was 96%. In the case of `CCCCCCCCC[C@@H](CC(=O)N[C@H]1C(O)O[C@H](CO)[C@@H](OS(=O)(=O)[O-])[C@@H]1OC(=O)CCCCCCCCc1ccccc1)OC(=O)CCCCCCCCc1ccccc1.[Na+]` (stereo partly drawn) [Compound (16), 2-Deoxy-2-[3S-[9-phenylnonanoyloxy]dodecanoyl]amino-3-O-[9-phenylnonanoyl]4-O-sulfo-D-glucopyranose sodium salt], the “Inhibition rate (%)” value is reported as 92%.
